Data from US20080009418A1, “Selective Inhibitors” (Alchemia LTD., priority 2004, published 2008).

Key:
[1] = target: T1, Human δ-opioid (DOP) (Homo sapiens, UniProt P41143); test: Radioligand binding, human δ-opioid (DOP) membranes, FlashPlate, [3H]-Bremazocine; conditions: compound at 10 μM
T1 construct: purchased Perkin Elmer Biosignal
Method in brief: (§1)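 Cloned human receptor membranes were coated onto FlashPlate wells and incubated with radioligand and compound (added from a 0.5 mM DMSO daughter plate) for 1 hour at room temperature in the dark. Scintillation counting gave percent inhibition, with DMSO defining total and reference ligand defining non-specific binding.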

[2] = target: T2, Human κ-Opioid (KOP) (Homo sapiens, UniProt P41145); test: Radioligand binding, human κ-opioid (KOP) membranes, filtration, [3H]-Diprenorphine; conditions: compound at 10 μM
T2 construct: purchased Perkin Elmer Biosignal
Method in brief: (§2)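 Percent inhibition of radioligand binding measured on recombinant human membranes: NK1 with [125I]-Substance P, KOP with [3H]-Diprenorphine. Incubation 1 h at room temperature, then harvest onto 0.3% PEI-soaked filters, cold Tris-HCl pH 7.4 washes and scintillation counting; non-specific binding from reference ligand wells.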

[3] = target: T3, Human Melanocortin (MC3) (Homo sapiens, UniProt P41968); test: Radioligand binding, human melanocortin MC3 membranes, FlashPlate, [125I]-NDP-αMSH; conditions: compound at 10 μM
T3 construct: purchased Perkin Elmer Biosignal
Method in brief: as §1

[4] = target: T4, Human Melanocortin (MC4) (Homo sapiens, UniProt P32245); test: Radioligand binding, human melanocortin MC4 membranes, FlashPlate, [125I]-NDP-αMSH; conditions: compound at 10 μM
T4 construct: purchased Perkin Elmer Biosignal
Method in brief: as §1

[5] = target: T5, Human melanocortin (MC5) (Homo sapiens, UniProt P33032); test: Radioligand binding, human melanocortin MC5 membranes, FlashPlate, [125I]-NDP-αMSH; conditions: compound at 10 μM
T5 construct: purchased Perkin Elmer Biosignal
Method in brief: as §1

[6] = target: T6, Human melanin-concentrating hormone (MCH1) (Homo sapiens, UniProt Q99705); test: Radioligand binding, human melanin-concentrating hormone MCH1 membranes, FlashPlate, [125I]-S36057; conditions: compound at 10 μM; for A6: inhibition of radioligand binding, human melanin-concentrating hormone (MCH1): [125I]-S36057
T6 construct: purchased Perkin Elmer Biosignal
Method in brief: as §1

[7] = target: T7, Human μ-opioid (MOP) (Homo sapiens, UniProt P35372); test: Radioligand binding, human μ-opioid (MOP) membranes, FlashPlate, [3H]-Naloxone; conditions: compound at 10 μM
T7 construct: purchased Perkin Elmer Biosignal
Method in brief: as §1

[8] = target: T8, Human neurokinin (NK1) (Homo sapiens, UniProt P25103); test: Radioligand binding, human neurokinin NK1 membranes, filtration, [125I]-Substance P; conditions: compound at 10 μM
T8 construct: purchased Perkin Elmer Biosignal
Method in brief: as §2

[9] = target: T9, Human neuropeptide Y (NPY-Y1) (Homo sapiens, UniProt P25929); test: Radioligand binding, human neuropeptide Y NPY-Y1 membranes, FlashPlate, [125I]-PYY; conditions: compound at 10 μM
T9 construct: purchased Perkin Elmer Biosignal
T9 sequence (P25929 1-384): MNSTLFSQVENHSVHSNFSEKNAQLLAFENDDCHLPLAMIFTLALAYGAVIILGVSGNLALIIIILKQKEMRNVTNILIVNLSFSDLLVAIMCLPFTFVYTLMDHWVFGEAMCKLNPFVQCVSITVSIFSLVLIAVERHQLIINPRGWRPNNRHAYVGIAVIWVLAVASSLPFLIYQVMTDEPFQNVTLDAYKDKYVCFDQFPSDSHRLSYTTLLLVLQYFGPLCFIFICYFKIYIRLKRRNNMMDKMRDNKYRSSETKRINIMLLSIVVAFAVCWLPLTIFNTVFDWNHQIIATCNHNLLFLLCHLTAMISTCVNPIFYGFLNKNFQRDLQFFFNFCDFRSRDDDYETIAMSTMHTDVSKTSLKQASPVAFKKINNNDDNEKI
Method in brief: as §1

[10] = target: T10, Human opioid (ORL1) (Homo sapiens, UniProt P41146); test: Radioligand binding, human opioid ORL1 membranes, FlashPlate, [125I]-Nociceptin; conditions: compound at 10 μM
T10 construct: purchased Perkin Elmer Biosignal
Method in brief: as §1

[11] = target: T11, Mouse urotensin (mUR2) (Mus musculus, UniProt Q8VIH9); test: Radioligand binding, mouse urotensin mUR2 membranes, FlashPlate, [125I]-Urotensin II; conditions: compound at 10 μM
T11 construct: purchased Perkin Elmer Biosignal
T11 sequence (Q8VIH9 1-385): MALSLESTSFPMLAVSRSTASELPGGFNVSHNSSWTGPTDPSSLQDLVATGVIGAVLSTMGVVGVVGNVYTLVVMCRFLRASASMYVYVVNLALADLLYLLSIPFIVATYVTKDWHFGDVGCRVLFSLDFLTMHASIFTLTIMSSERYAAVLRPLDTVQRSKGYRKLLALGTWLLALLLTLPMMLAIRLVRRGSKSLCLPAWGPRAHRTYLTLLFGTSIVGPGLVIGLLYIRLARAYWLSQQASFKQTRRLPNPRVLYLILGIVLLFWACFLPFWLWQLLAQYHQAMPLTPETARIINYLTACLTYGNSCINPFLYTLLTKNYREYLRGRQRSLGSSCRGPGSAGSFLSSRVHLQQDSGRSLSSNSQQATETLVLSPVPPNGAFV
Method in brief: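 Cloned mouse urotensin (mUR2) receptor membranes from Perkin Elmer Biosignal were immobilized in FlashPlate microplates using a proprietary coating. Each well got 19.5 μl buffer, then 0.5 μl of DMSO, reference ligand, or compound. Adding 5 μl of [125I]-Urotensin II, diluted to 5× final concentration in binding buffer, started binding. Plates were sealed with TopSeal-A and incubated 1 hour at room temperature in the dark. Wells were counted for 30 seconds each on a TopCount after a 60-second delay, and percentage inhibition was calculated.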

T10 sequence (P41146 whole entry): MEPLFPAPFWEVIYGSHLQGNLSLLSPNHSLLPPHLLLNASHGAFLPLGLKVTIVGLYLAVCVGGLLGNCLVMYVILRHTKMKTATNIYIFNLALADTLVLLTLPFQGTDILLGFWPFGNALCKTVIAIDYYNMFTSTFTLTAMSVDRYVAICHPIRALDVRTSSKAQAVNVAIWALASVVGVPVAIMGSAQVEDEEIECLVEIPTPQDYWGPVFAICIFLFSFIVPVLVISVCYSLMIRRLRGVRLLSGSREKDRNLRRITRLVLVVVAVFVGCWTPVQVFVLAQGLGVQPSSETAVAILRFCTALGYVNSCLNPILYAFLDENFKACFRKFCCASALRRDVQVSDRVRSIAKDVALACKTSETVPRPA
T6 sequence (Q99705 whole entry): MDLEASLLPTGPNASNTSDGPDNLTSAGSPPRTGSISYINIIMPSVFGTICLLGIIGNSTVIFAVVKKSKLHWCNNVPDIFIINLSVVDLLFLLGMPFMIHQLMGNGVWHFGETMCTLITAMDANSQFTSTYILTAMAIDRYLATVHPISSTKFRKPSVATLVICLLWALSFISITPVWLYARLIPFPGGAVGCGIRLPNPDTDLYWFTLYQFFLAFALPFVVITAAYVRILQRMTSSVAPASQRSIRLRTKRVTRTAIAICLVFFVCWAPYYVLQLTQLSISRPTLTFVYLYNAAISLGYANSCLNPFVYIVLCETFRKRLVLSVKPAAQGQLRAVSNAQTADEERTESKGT
T2 sequence (P41145 whole entry): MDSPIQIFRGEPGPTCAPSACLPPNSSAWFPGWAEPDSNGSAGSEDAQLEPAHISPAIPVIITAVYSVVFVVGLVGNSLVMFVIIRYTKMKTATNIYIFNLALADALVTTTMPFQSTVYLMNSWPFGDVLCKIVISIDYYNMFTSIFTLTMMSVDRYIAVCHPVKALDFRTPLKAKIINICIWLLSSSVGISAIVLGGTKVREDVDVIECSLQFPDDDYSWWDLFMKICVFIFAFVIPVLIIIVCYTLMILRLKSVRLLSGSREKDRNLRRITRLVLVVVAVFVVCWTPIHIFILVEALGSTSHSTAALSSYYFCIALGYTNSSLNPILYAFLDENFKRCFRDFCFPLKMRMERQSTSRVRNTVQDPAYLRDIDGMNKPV
T8 sequence (P25103 whole entry): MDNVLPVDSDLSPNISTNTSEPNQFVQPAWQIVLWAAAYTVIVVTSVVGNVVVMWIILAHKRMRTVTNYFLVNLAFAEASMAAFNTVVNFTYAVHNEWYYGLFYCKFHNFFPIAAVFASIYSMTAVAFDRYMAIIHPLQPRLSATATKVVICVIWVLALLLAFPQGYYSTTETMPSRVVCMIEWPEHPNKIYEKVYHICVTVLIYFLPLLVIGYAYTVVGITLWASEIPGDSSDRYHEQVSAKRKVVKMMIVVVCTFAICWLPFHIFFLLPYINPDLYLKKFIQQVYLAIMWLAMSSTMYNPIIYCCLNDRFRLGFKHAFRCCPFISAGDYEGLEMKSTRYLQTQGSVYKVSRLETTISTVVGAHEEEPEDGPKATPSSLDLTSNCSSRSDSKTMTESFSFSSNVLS
T5 sequence (P33032 whole entry): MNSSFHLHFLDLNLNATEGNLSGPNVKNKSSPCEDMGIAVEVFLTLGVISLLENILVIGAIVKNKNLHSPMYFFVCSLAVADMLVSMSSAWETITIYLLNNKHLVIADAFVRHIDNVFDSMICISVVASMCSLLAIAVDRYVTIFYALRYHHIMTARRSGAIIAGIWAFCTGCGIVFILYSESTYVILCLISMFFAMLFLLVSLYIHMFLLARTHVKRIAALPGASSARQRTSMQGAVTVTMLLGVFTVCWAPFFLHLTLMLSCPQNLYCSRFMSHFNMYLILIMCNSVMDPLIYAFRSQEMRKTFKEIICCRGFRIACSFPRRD
T7 sequence (P35372 whole entry): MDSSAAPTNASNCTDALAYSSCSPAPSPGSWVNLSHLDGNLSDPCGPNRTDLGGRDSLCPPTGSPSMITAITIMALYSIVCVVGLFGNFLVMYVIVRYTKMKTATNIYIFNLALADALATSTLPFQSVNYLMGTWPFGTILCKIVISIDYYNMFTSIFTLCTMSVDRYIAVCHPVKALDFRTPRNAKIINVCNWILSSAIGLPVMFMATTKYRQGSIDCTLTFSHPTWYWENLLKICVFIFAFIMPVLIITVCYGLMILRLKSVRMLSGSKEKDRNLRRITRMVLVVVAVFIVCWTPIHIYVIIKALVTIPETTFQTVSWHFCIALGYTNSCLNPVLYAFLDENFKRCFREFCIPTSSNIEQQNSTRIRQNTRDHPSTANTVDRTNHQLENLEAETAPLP
T4 sequence (P32245 whole entry): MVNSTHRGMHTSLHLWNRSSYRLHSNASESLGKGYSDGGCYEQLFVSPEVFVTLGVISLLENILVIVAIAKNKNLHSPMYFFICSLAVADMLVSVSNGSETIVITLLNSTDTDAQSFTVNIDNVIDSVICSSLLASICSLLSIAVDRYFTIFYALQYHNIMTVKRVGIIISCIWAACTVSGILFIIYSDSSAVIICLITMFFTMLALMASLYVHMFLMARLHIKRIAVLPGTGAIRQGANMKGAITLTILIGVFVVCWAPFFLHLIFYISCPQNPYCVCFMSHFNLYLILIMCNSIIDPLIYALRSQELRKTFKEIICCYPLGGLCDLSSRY
T1 sequence (P41143 whole entry): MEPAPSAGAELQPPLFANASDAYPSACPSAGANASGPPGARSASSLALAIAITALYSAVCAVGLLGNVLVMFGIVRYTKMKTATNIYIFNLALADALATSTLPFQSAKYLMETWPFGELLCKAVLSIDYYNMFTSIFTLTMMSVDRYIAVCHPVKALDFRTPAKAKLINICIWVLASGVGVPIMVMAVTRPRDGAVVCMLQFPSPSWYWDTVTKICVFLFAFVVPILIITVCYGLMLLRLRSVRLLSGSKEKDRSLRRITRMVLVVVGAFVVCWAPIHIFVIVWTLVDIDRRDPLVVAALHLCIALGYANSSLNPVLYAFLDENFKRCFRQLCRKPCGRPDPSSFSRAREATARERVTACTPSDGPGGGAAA
T3 sequence (P41968 whole entry): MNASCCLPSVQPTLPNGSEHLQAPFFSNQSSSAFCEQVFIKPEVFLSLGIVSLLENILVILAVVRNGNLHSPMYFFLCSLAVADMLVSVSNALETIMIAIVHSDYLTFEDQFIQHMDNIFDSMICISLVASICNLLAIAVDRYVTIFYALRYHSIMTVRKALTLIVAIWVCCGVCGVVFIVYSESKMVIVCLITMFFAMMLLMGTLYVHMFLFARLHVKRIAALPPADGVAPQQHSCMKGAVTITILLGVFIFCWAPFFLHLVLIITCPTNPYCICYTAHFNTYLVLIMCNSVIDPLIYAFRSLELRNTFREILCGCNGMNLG

SMILES: CO[C@H]1[C@H](O)[C@@H](COCc2ccccc2)OC(OCc2ccc3ccccc3c2)[C@@H]1NC(=O)CNC(=N)N (some centres unmarked) [compound 74]
- A1 radioligand binding inhibition ([1]; human δ-opioid (DOP) membranes): − (“−” indicates less than 50% inhibition at 10 μM)
- A2 radioligand binding inhibition ([2]; human κ-opioid (KOP) membranes): − (“−” indicates less than 50% inhibition at 10 μM)
- A3 radioligand binding inhibition ([3]; human melanocortin MC3 membranes): − (“−” indicates less than 50% inhibition at 10 μM)
- A4 radioligand binding inhibition ([4]; human melanocortin MC4 membranes): − (“−” indicates less than 50% inhibition at 10 μM)
- A5 radioligand binding inhibition ([5]; human melanocortin MC5 membranes): + (“+” indicates greater than 50% inhibition at 10 μM)
- A6 radioligand binding inhibition ([6]; human MCH1 membranes): − (“−” indicates less than 50% inhibition at 10 μM)
- A7 radioligand binding inhibition ([7]; human μ-opioid (MOP) membranes): + (“+” indicates greater than 50% inhibition at 10 μM)
- A8 radioligand binding inhibition ([8]; human neurokinin NK1 membranes): + (“+” indicates greater than 50% inhibition at 10 μM)
- A9 radioligand binding inhibition ([9]; human NPY-Y1 membranes): − (“−” indicates less than 50% inhibition at 10 μM)
- A10 radioligand binding inhibition ([10]; human ORL1 membranes): − (“−” indicates less than 50% inhibition at 10 μM)
- A11 radioligand binding inhibition ([11]; mouse urotensin mUR2 membranes): − (“−” indicates less than 50% inhibition at 10 μM)

SMILES: NCCC(=O)NC1C(OCc2ccc(Cl)cc2)OC(COCc2ccccc2)C(O)C1OCc1ccccc1 (single isomer, unassigned) [compound 486]
- A1: inhibition of radioligand binding, human δ-opioid (DOP) ([1]; [3H]-Bremazocine): − (“−” indicates less than 50% inhibition at 10 μM)
- A2: inhibition of radioligand binding, human κ-opioid (KOP) ([2]; [3H]-Diprenorphine): − (“−” indicates less than 50% inhibition at 10 μM)
- A3: inhibition of radioligand binding, human melanocortin (MC3) ([3]; [125I]-NDP-αMSH): − (“−” indicates less than 50% inhibition at 10 μM)
- A4: inhibition of radioligand binding, human melanocortin (MC4) ([4]; [125I]-NDP-αMSH): − (“−” indicates less than 50% inhibition at 10 μM)
- A5: inhibition of radioligand binding, human melanocortin (MC5) ([5]; [125I]-NDP-αMSH): − (“−” indicates less than 50% inhibition at 10 μM)
- A6: inhibition of radioligand binding, human melanin-concentrating hormone (MCH1) [6]: − (“−” indicates less than 50% inhibition at 10 μM)
- A7: inhibition of radioligand binding, human μ-opioid (MOP) ([7]; [3H]-Naloxone): − (“−” indicates less than 50% inhibition at 10 μM)
- A8: inhibition of radioligand binding, human neurokinin (NK1) ([8]; [125I]-Substance P): + (“+” indicates greater than 50% inhibition at 10 μM)
- A9: inhibition of radioligand binding, human neuropeptide Y (NPY-Y1) ([9]; [125I]-PYY): − (“−” indicates less than 50% inhibition at 10 μM)
- A10: inhibition of radioligand binding, human opioid (ORL1) ([10]; [125I]-Nociceptin): − (“−” indicates less than 50% inhibition at 10 μM)
- A11: inhibition of radioligand binding, mouse urotensin (mUR2) ([11]; [125I]-Urotensin II): − (“−” indicates less than 50% inhibition at 10 μM)

SMILES: COCC1OC(OCc2ccc(Cl)cc2)C(NC(=O)CN)C(OCc2ccc(Cl)cc2)C1O (centres unmarked) [compound 199]
- A1: inhibition of radioligand binding ([1]; [3H]-Bremazocine, FlashPlate): − (“−” indicates less than 50% inhibition at 10 μM)
- A2: inhibition of radioligand binding ([2]; [3H]-Diprenorphine, filtration): − (“−” indicates less than 50% inhibition at 10 μM)
- A3: inhibition of radioligand binding ([3]; [125I]-NDP-αMSH, FlashPlate): − (“−” indicates less than 50% inhibition at 10 μM)
- A4: inhibition of radioligand binding ([4]; [125I]-NDP-αMSH, FlashPlate): − (“−” indicates less than 50% inhibition at 10 μM)
- A5: inhibition of radioligand binding ([5]; [125I]-NDP-αMSH, FlashPlate): − (“−” indicates less than 50% inhibition at 10 μM)
- A6: inhibition of radioligand binding ([6]; [125I]-S36057, FlashPlate): − (“−” indicates less than 50% inhibition at 10 μM)
- A7: inhibition of radioligand binding ([7]; [3H]-Naloxone, FlashPlate): − (“−” indicates less than 50% inhibition at 10 μM)
- A8: inhibition of radioligand binding ([8]; [125I]-Substance P, filtration): + (“+” indicates greater than 50% inhibition at 10 μM)
- A9: inhibition of radioligand binding ([9]; [125I]-PYY, FlashPlate): − (“−” indicates less than 50% inhibition at 10 μM)
- A10: inhibition of radioligand binding ([10]; [125I]-Nociceptin, FlashPlate): − (“−” indicates less than 50% inhibition at 10 μM)
- A11: inhibition of radioligand binding ([11]; [125I]-Urotensin II, FlashPlate): − (“−” indicates less than 50% inhibition at 10 μM)

SMILES: N=C(N)NCC(=O)NC1C(OCc2ccc(Cl)cc2)OC(COCc2ccccc2)C(O)C1OCc1ccc(Cl)cc1 (single isomer, unassigned) [compound 510]
- A1: inhibition of radioligand binding, human δ-opioid (DOP) ([1]; [3H]-Bremazocine): − (“−” indicates less than 50% inhibition at 10 μM)
- A2: inhibition of radioligand binding, human κ-opioid (KOP) ([2]; [3H]-Diprenorphine): − (“−” indicates less than 50% inhibition at 10 μM)
- A3: inhibition of radioligand binding, human melanocortin (MC3) ([3]; [125I]-NDP-αMSH, 10 µM): + (“+” indicates greater than 50% inhibition at 10 μM)
- A4: inhibition of radioligand binding, human melanocortin (MC4) ([4]; [125I]-NDP-αMSH): + (“+” indicates greater than 50% inhibition at 10 μM)
- A5: inhibition of radioligand binding, human melanocortin (MC5) ([5]; [125I]-NDP-αMSH): + (“+” indicates greater than 50% inhibition at 10 μM)
- A6: inhibition of radioligand binding, human melanin-concentrating hormone (MCH1) [6]: + (“+” indicates greater than 50% inhibition at 10 μM)
- A7: inhibition of radioligand binding, human μ-opioid (MOP) ([7]; [3H]-Naloxone, 10 µM): − (“−” indicates less than 50% inhibition at 10 μM)
- A8: inhibition of radioligand binding, human neurokinin (NK1) ([8]; [125I]-Substance P): + (“+” indicates greater than 50% inhibition at 10 μM)
- A9: inhibition of radioligand binding, human neuropeptide Y (NPY-Y1) ([9]; [125I]-PYY): − (“−” indicates less than 50% inhibition at 10 μM)
- A10: inhibition of radioligand binding, human opioid (ORL1) ([10]; [125I]-Nociceptin, 10 µM): + (“+” indicates greater than 50% inhibition at 10 μM)
- A11: inhibition of radioligand binding, mouse urotensin (mUR2) ([11]; [125I]-Urotensin II): − (“−” indicates less than 50% inhibition at 10 μM)
